The values that follow come from US9221756B2, “Pyrrole derivatives” (priority 2011, dated 2015).

A short description of data set [1]: Conversion of prodrug derivatives to active inhibitors in mouse plasma. It counts as in vitro ADME. The conditions noted are these: 37° C., 10 μM start, prodrug remaining; for [ ] (μM) t0 min. Prodrug: 0 min; for [ ] (μM) t15 min. Prodrug: 15 min; for [ ] (μM) t30 min. Prodrug: 30 min; for [ ] (μM) t60 min. Prodrug: 60 min; for [ ] (μM) t120 min. Prodrug: 120 min. As for the experimental part: The samples were then analysed by LC-MS/MS to obtain the amount of active compound appearing and prodrug derivative remaining over time. The mouse plasma assay system is considered to be a good model for human behaviour. Nevertheless data obtained in a human plasma assay system was obtained in some cases.
Prodrug derivatives were assessed in the mouse and human plasma stability assay at a concentration of 10 μM. Test compounds were diluted in DMSO to a final stock concentration of 10 mM. For the purpose of the assay, the stocks prepared were further diluted in DMSO to a concentration of 400 μM and […] were added to 195 μl of mouse or human plasma (pH 7.4) and then incubated at 37° C. The final concentration of DMSO in the plate was 2.5% (v/v). Reactions were terminated at 0, 15, 30, 60 and 120 min after incubation by adding 400 μl of acetonitrile containing 0.55 μM metoprolol and 1% (v/v) formic acid. The plate was then centrifuged at 3000 rpm, for 45 min, at 4° C. 80 μl of supernatant were transferred into a conical bottom 96 well glass coated plate. 40 μl of water were added prior to analysis for prodrug derivative and active species by LC-MS/MS. This assay was performed by a contract research organisation, Cyprotex Discovery Limited, UK, at the request of the inventors at Leicester.
(1) The active compound was quantified using a 6 point calibration curve prepared in deactivated mouse and human plasma. (2) The percentage of parent compound remaining at each time point relative to 0 min sample was calculated from LC-MS/MS peak area ratios (compound peak area/internal standard peak area). This percentage was then used to determine the concentration of the parent compound at each time point in reference to the starting concentration (10 μM) at time 0 min.

A further data set concerns the target pneumolysin (Streptococcus pneumoniae serotype 2, UniProt Q04IN8). The data set is described as follows: Inhibition of the haemolytic activity of pneumolysin (sheep erythrocytes). The data set is classed as cell-based. The conditions noted are these: class symbols of Table 1.
Where [2] appears, read: IC50, inhibition of pneumolysin-induced haemolysis of sheep erythrocytes.
Where [3] appears, read: inhibition of pneumolysin-induced haemolysis of sheep erythrocytes, read-out: IC50.

SMILES strings stand for the structures. Where two headings read alike, the source gives them in different places.

Sequence of pneumolysin (Q04IN8 whole entry): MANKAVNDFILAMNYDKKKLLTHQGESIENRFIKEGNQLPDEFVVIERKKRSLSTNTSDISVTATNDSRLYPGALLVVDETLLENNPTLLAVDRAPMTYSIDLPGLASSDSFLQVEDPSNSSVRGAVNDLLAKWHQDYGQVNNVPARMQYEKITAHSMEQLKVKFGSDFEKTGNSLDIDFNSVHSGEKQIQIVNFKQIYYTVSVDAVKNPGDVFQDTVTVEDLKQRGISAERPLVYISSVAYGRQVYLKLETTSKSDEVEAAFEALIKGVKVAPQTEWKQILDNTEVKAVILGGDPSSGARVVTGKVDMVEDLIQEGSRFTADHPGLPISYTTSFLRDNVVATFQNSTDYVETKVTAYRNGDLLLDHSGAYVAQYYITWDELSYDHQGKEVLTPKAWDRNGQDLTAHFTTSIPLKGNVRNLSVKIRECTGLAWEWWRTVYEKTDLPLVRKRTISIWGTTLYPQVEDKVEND

As for `CCOC(=O)c1c(OC(C)=O)c(OC(C)=O)c(C(=O)N(C)C)n1-c1ccc(OC)cc1` [UL1-044, 2-(dimethylcarbamoyl)-5-(ethoxycarbonyl)-1-(4-methoxyphenyl)-1H-pyrrole-3,4-diyl diacetate], in data set [1], the “[ ] (μM) t0 min. Prodrug” value worked out at 10 µM, the “[ ] (μM) t15 min. Prodrug” value came out at 0 µM, the “[ ] (μM) t30 min. Prodrug” value is 0 µM and the “[ ] (μM) t60 min. Prodrug” value turned out to be 0 µM. Moreover, the “[ ] (μM) t120 min. Prodrug” value in data set [1] was determined as 0 µM. Further, at pneumolysin (setting [2]), the IC50 (commonly the midpoint of a concentration-inhibition curve) is less than 10 µM.

As to `CCOC(=O)c1c(OC(=O)N(C)C)c(OC(=O)N(C)C)c(C(=O)N(C)C)n1-c1ccc(OC)cc1` [UL1-063, ethyl 5-(dimethylcarbamoyl)-3,4-bis((dimethylcarbamoyl)oxy)-1-(4-methoxyphenyl)-1H-pyrrole-2-carboxylate], in data set [1], the “[ ] (μM) t0 min. Prodrug” value turned out to be 10 µM, the “[ ] (μM) t15 min. Prodrug” value was determined as 10 µM, the “[ ] (μM) t30 min. Prodrug” value amounted to 9.20 µM and the “[ ] (μM) t60 min. Prodrug” value was 9.40 µM. Also, the “[ ] (μM) t120 min. Prodrug” value in data set [1] came out at 8.50 µM. Moreover, the IC50 on pneumolysin (setting [3]) is greater than 60 µM. As to `CCOC(=O)c1c(OC(=O)N2CCN(C)CC2)c(OC(=O)N2CCN(C)CC2)c(C(=O)N(C)C)n1-c1ccc(OC)cc1` [UL1-064, 2-(dimethylcarbamoyl)-5-(ethoxycarbonyl)-1-(4-methoxyphenyl)-1H-pyrrole-3,4-diyl bis(4-methylpiperazine-1-carboxylate)], in data set [1], the “[ ] (μM) t0 min. Prodrug” value amounted to 10 µM, the “[ ] (μM) t15 min. Prodrug” value was determined as 3.10 µM, the “[ ] (μM) t30 min. Prodrug” value is 7.00 µM and the “[ ] (μM) t60 min. Prodrug” value was 5.00 µM. Further, in data set [1], the “[ ] (μM) t120 min. Prodrug” value came out at 2.20 µM. The IC50 on pneumolysin (setting [3]) is greater than 60 µM. As to `CCOC(=O)c1c(OC(=O)N2CCC(N3CCCCC3)CC2)c(OC(=O)N2CCC(N3CCCCC3)CC2)c(C(=O)N(C)C)n1-c1ccc(OC)cc1` [UL1-065, 2-(dimethylcarbamoyl)-5-(ethoxycarbonyl)-1-(4-methoxyphenyl)-1H-pyrrole-3,4-diyl bis([1,4′-bipiperidine]-1′-carboxylate)], in data set [1], the “[ ] (μM) t0 min. Prodrug” value turned out to be 10 µM, the “[ ] (μM) t15 min. Prodrug” value turned out to be 4.21 µM, the “[ ] (μM) t30 min. Prodrug” value stood at 3.72 µM and the “[ ] (μM) t60 min. Prodrug” value came out at 2.57 µM. Moreover, the “[ ] (μM) t120 min. Prodrug” value in data set [1] was determined as 1.14 µM. At pneumolysin (setting [3]), the IC50 was greater than 60 µM. Regarding `CCOC(=O)c1c(O)c(OC(=O)N(C)C)c(C(=O)N(C)C)n1-c1ccc(OC)cc1` [UL1-066, ethyl 5-(dimethylcarbamoyl)-4-((dimethylcarbamoyl)oxy)-3-hydroxy-1-(4-methoxyphenyl)-1H-pyrrole-2-carboxylate], in data set [1], the “[ ] (μM) t0 min. Prodrug” value is 10 µM, the “[ ] (μM) t15 min. Prodrug” value was 9.90 µM, the “[ ] (μM) t30 min. Prodrug” value is 10.00 µM and the “[ ] (μM) t60 min. Prodrug” value was determined as 9.78 µM. Also, the “[ ] (μM) t120 min. Prodrug” value in data set [1] came to 9.50 µM. In addition, the IC50 at pneumolysin (setting [3]) was less than 10 µM.

As for `CCOC(=O)c1c(O)c(O)c(C(=O)OCC)n1-c1ccc2c(c1)OCO2` [UL2-019, diethyl 1-(benzo[d][1,3]dioxol-5-yl)-3,4-dihydroxy-1H-pyrrole-2,5-dicarboxylate], the IC50 against pneumolysin (setting [2]) is 20 to 60 µM. At pneumolysin (setting [2]), `COc1ccc(-n2c(C(=O)OC(C)C)c(O)c(O)c2C(=O)OC(C)C)cc1` [UL2-020, diisopropyl 3,4-dihydroxy-1-(4-methoxyphenyl)-1H-pyrrole-2,5-dicarboxylate] came in with an IC50 of less than 10 µM. On the same count and under the same terms, then `CCOC(=O)c1c(O)c(O)c(C(=O)OC(C)C)n1-c1ccc(OC)cc1` [UL2-021, 2-ethyl 5-isopropyl 3,4-dihydroxy-1-(4-methoxyphenyl)-1H-pyrrole-2,5-dicarboxylate], with less than 10 µM; and `COc1ccc(-n2c(C(=O)OC(C)(C)C)c(O)c(O)c2C(=O)OC(C)(C)C)cc1` [UL2-022, di-tert-butyl 3,4-dihydroxy-1-(4-methoxyphenyl)-1H-pyrrole-2,5-dicarboxylate], with less than 10 µM.

`CCOC(=O)c1c(O)c(O)c(C(=O)OCC)n1-c1ccccc1OC` [UL2-023, diethyl 3,4-dihydroxy-1-(2-methoxyphenyl)-1H-pyrrole-2,5-dicarboxylate] displayed an IC50 at pneumolysin (setting [2]) of 20 to 60 µM. Same read-out and setting: then `CCOC(=O)c1c(O)c(O)c(C(=O)OCC)n1-c1ccc(C#N)cc1` [UL2-024, diethyl 1-(4-cyanophenyl)-3,4-dihydroxy-1H-pyrrole-2,5-dicarboxylate], with 10 to 20 µM. On the same count and under the same terms, then `CCOC(=O)c1c(O)c(OCCO)c(C(=O)OCC)n1-c1ccc(F)cc1` [UL2-025, diethyl 1-(4-fluorophenyl)-3-hydroxy-4-(2-hydroxyethoxy)-1H-pyrrole-2,5-dicarboxylate], with 20 to 60 µM; and `CCOC(=O)c1c(O)c(OCCO)c(C(=O)OCC)n1-c1ccc(OC)cc1` [UL2-026, diethyl 3-hydroxy-4-(2-hydroxyethoxy)-1-(4-methoxyphenyl)-1H-pyrrole-2,5-dicarboxylate], with 20 to 60 µM.

`CCOC(=O)c1c(O)c(OCC(=O)OC(C)(C)C)c(C(=O)OCC)n1-c1ccc(F)cc1` [UL2-027, diethyl 3-(2-(tert-butoxy)-2-oxoethoxy)-1-(4-fluorophenyl)-4-hydroxy-1H-pyrrole-2,5-dicarboxylate]: the IC50 on pneumolysin (setting [2]) lay within 10 to 20 µM.

In the case of `CCOC(=O)c1c(OCC(=O)OC(C)(C)C)c(OCc2ccccc2)c(C(=O)OCC)n1-c1ccc(OC)cc1` [UL2-028, diethyl 3-(benzyloxy)-4-(2-(tert-butoxy)-2-oxoethoxy)-1-(4-methoxyphenyl)-1H-pyrrole-2,5-dicarboxylate], the IC50 against pneumolysin (setting [2]) fell in the range of 20 to 60 µM.

The compound `CCOC(=O)c1c(O)c(OCC(N)=O)c(C(=O)OCC)n1-c1ccc(F)cc1` [UL2-029, diethyl 3-(2-amino-2-oxoethoxy)-1-(4-fluorophenyl)-4-hydroxy-1H-pyrrole-2,5-dicarboxylate] returned an IC50 at pneumolysin (setting [2]) of 20 to 60 µM. The same measure, in the same setting: then `CCOC(=O)c1c(O)c(OCC(=O)OC(C)(C)C)c(C(=O)OCC)n1-c1ccc(OC)cc1` [UL2-030, diethyl 3-(2-(tert-butoxy)-2-oxoethoxy)-4-hydroxy-1-(4-methoxyphenyl)-1H-pyrrole-2,5-dicarboxylate], with 10 to 20 µM. Same read-out and setting: then `CCOC(=O)c1c(O)c(OCC(N)=O)c(C(=O)OCC)n1-c1ccc(OC)cc1` [UL2-031, diethyl 3-(2-amino-2-oxoethoxy)-4-hydroxy-1-(4-methoxyphenyl)-1H-pyrrole-2,5-dicarboxylate], with 20 to 60 µM; and `CCOC(=O)c1c(O)c(O)c(C(=O)OCC)n1-c1ccc(C(C)(C)C)cc1` [UL2-032, diethyl 1-(4-(tert-butyl)phenyl)-3,4-dihydroxy-1H-pyrrole-2,5-dicarboxylate], with less than 10 µM. Same read-out and setting: then `CCOC(=O)c1c(O)c(O)c(C(=O)OCC)n1-c1ccc(OC)c(I)c1` [UL2-033, diethyl 3,4-dihydroxy-1-(3-iodo-4-methoxyphenyl)-1H-pyrrole-2,5-dicarboxylate], with less than 10 µM. Take `CCOC(=O)c1c(O)c(O)c(C(=O)OCC)n1-c1ccc(OCCOC)cc1` [UL2-034, diethyl 3,4-dihydroxy-1-(4-(2-methoxyethoxy)phenyl)-1H-pyrrole-2,5-dicarboxylate]: the half-inhibitory concentration (IC50) on pneumolysin (setting [2]) is less than 10 µM.

`CCOC(=O)c1c(O)c(O)c(C(=O)OCC)n1-c1ccc(OCCOCCOCCOC)cc1` [UL2-035, diethyl 3,4-dihydroxy-1-(4-(2-(2-(2-methoxyethoxy)ethoxy)ethoxy)phenyl)-1H-pyrrole-2,5-dicarboxylate]: at pneumolysin (setting [2]), the IC50 was less than 10 µM. Same read-out and setting: then `CCOC(=O)c1c(O)c(O)c(C(=O)OCC)n1-c1ccc(OCCOCCOCCOCCOC)cc1` [UL2-036, diethyl 1-(4-(2,5,8,11-tetraoxatridecan-13-yloxy)phenyl)-3,4-dihydroxy-1H-pyrrole-2,5-dicarboxylate], with less than 10 µM.

For `CCOC(=O)c1c(O)c(O)c(C(=O)OCC)n1-c1ccc(OCCCN2CCOCC2)cc1` [UL2-037, diethyl 3,4-dihydroxy-1-(4-(3-morpholinopropoxy)phenyl)-1H-pyrrole-2,5-dicarboxylate], the IC50 at pneumolysin (setting [2]) is less than 10 µM. On the same count and under the same terms, then `CCOC(=O)c1c(O)c(O)c(C(=O)OCC)n1-c1ccc(OCc2ccc(OC)cc2)cc1` [UL2-038, diethyl 3,4-dihydroxy-1-(4-((4-methoxybenzyl)oxy)phenyl)-1H-pyrrole-2,5-dicarboxylate], with less than 10 µM.

At pneumolysin (setting [2]), `CN(C)C(=O)c1c(O)c(O)c(C(=O)N(C)C)n1-c1ccc(F)cc1` [ULI-008, 1-(4-fluorophenyl)-3,4-dihydroxy-N^2,N^2,N^5,N^5-tetramethyl-1H-pyrrole-2,5-dicarboxamide] showed an IC50 of less than 10 µM.
